Experimental data: US9328386B2, “Markers for susceptibility to an inhibitor of an Src-family kinase” (Evotec (München) GmbH, priority 2011, dated 2016)
Where two headings read alike, the source gives them in different places.

Experiments:
HCC2279 NSCLC cell line = settings: dasatinib, cited from earlier work
LCLC103H NSCLC cell line = assay: Cellular growth inhibition (CellTiter Glo viability assay); assay type: cell-based; settings: Homo sapiens, LCLC-103H, 96 h; read-out: GI50 this paper
H2077 NSCLC cell line = settings: dasatinib, cited from earlier work
H1648 NSCLC cell line = settings: dasatinib, cited from earlier work
H157 NSCLC cell line = settings: dasatinib, cited from earlier work
H647 NSCLC cell line [1] = assay: Cellular growth inhibition (CellTiter Glo viability assay); assay type: cell-based; settings: Homo sapiens, NCI-H647, 96 h; read-out: GI50 this paper
[2] = system: MDA-MB-231 breast cancer cell line; assay: as above; assay type: cell-based; settings: Homo sapiens, MDA-MB-231, 96 h; read-out: GI50 this paper
advanced NSCLC = settings: among thirty-four patients with advanced NSCLC; Johnson, Bekele et al., 2010; cited from earlier work
[3] = system: MCF7 breast cancer cell line; settings: dasatinib, Huang et al. 2007, read-out: GI50 literature; cited from earlier work
[4] = system: BT-20 breast cancer cell line; assay: Cellular growth inhibition (CellTiter Glo viability assay); assay type: cell-based; settings: Homo sapiens, BT-20, 96 h; read-out: GI50 this paper
[5] = system: HCC1937 breast cancer cell line; assay: as above; assay type: cell-based; settings: Homo sapiens, HCC1937, 96 h; read-out: GI50 this paper
[6] = system: BT-549 breast cancer cell line; assay: as above; assay type: cell-based; settings: Homo sapiens, BT-549, 96 h; read-out: GI50 this paper
[7] = system: HCC1937 breast cancer cell line; settings: dasatinib, cited from earlier work
[8] = system: BT-549 breast cancer cell line; settings: dasatinib, cited from earlier work
[9] = system: MDA-MB-231 breast cancer cell line; settings: dasatinib, cited from earlier work
H2030 NSCLC cell line = settings: dasatinib, cited from earlier work
H322M NSCLC cell line = settings: dasatinib, cited from earlier work
H322 NSCLC cell line = assay: Cellular growth inhibition (CellTiter Glo viability assay); assay type: cell-based; settings: Homo sapiens, NCI-H322, 96 h; read-out: GI50 this paper
H647 NSCLC cell line [10] = settings: dasatinib, cited from earlier work
LouNH91 NSCLC cell line = settings: dasatinib, cited from earlier work
H2887 NSCLC cell line = settings: dasatinib, cited from earlier work
[11] = Sos et al. 2009, read-out: GI50 literature
[12] = Huang et al. 2007, read-out: GI50 literature

In the case of Cc1nc(Nc2ncc(C(=O)Nc3c(C)cccc3Cl)s2)cc(N2CCN(CCO)CC2)n1 [dasatinib, N-(2-chloro-6-methylphenyl)-2-[[6-[4-(2-hydroxyethyl)piperazin-1-yl]-2-methylpyrimidin-4-yl]amino]-1,3-thiazole-5-carboxamide], the GI50 (HCC2279 NSCLC cell line; [11]) is given as 139 nM, the IC50 (HCC2279 NSCLC cell line; read-out: Class) is given as less than 1000 nM and the GI50 (LCLC103H NSCLC cell line) is given as 80 nM. For the same compound, the GI50 (H2077 NSCLC cell line; [11]) was 10100 nM, the Sensitivity class (H2077 NSCLC cell line) was greater than 1000 nM and the GI50 (H1648 NSCLC cell line; [11]) was 59.3 nM. The Class (H1648 NSCLC cell line) was less than 1000 nM, the GI50 (H157 NSCLC cell line; [11]) was 10500 nM and the Sensitivity class (H157 NSCLC cell line) was greater than 1000 nM. The GI50 (H647 NSCLC cell line [1]) was 16 nM, the GI50 [2] was 36 nM and the metabolic responses (advanced NSCLC) was “eleven”. The partial response (advanced NSCLC) was “one”, the GI50 [3] was greater than 9520 nM and the GI50 [4] was 497 nM. The GI50 [5] was 82 nM, the GI50 [6] was 1710 nM and the GI50 [7, 12] was 70 nM. For the same compound, the Sensitivity class [7] was less than 1000 nM, the GI50 [8, 12] was 9060 nM and the IC50 ([8]; read-out: Class) was greater than 1000 nM. The GI50 [9, 12] was 9.5 nM, the Sensitivity class [9] was less than 1000 nM and the GI50 (H2030 NSCLC cell line; [11]) was 118 nM. The Sensitivity class (H2030 NSCLC cell line) was less than 1000 nM, the GI50 (H322M NSCLC cell line; [11]) was 81.9 nM and the IC50 (H322M NSCLC cell line; read-out: Class) was less than 1000 nM. The GI50 (H322 NSCLC cell line) was 2100 nM, the GI50 (H647 NSCLC cell line [10]; [11]) was 12400 nM and the IC50 (H647 NSCLC cell line [10]; read-out: Class) was greater than 1000 nM. The GI50 (LouNH91 NSCLC cell line; [11]) was 113 nM, the IC50 (LouNH91 NSCLC cell line; read-out: Class) was less than 1000 nM and the GI50 (H2887 NSCLC cell line; [11]) was 11300 nM. For the same compound, the IC50 (H2887 NSCLC cell line; read-out: Class) was greater than 1000 nM.
